Literature values in article PMC9905294 (Biochemistry, 2023).

Target: Mtb Eis (Mycobacterium tuberculosis, UniProt P9WFK7)
Details: previously published value; cited from earlier work

Sequence of Mtb Eis (P9WFK7 whole entry): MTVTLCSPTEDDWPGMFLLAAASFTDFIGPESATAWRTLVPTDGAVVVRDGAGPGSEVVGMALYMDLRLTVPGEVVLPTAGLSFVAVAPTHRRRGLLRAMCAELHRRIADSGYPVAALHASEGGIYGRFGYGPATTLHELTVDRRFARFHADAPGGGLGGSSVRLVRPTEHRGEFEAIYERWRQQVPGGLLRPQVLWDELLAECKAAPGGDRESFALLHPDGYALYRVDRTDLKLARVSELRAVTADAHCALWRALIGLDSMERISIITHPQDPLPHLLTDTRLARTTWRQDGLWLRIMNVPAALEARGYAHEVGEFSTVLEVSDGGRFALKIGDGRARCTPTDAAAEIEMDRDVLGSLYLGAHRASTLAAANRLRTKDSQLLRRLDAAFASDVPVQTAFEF

In the case of [H]/N=C(\N/C(=N/[H])NCCCCCCNC(=N)NC(=N)Nc1ccc(Cl)cc1)Nc1ccc(Cl)cc1 [Chlorhexidine (CHX), Chlorhexidine], the IC50 is listed as 670 ± 190 nM.
